Values joined by “and” are separate entries in the source; they are usually repeats but may differ in a detail not shown here. Equal values may be shown once.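 These data come from cells grown in 96-well plates and exposed to compound for 48 hours at five concentrations. Abbreviation: GI50, concentration required for 50% inhibition of growth. At the TGI there is no net growth.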
Key:
Assay in all cases: NCI tumour cell line growth inhibition, 48 h
HT29 colon = test system: HT29 colon
BT-549 breast = test system: BT-549 breast
PC-3 prostate = test system: PC-3 prostate
NCI-H522 lung = test system: NCI-H522 lung
TK-10 renal = test system: TK-10 renal
A498 renal = test system: A498 renal
A549 NSCLC = test system: A549 NSCLC
NCI-H23 lung = test system: NCI-H23 lung
HOP-18 NSCLC = test system: HOP-18 NSCLC
SNB-78 CNS = test system: SNB-78 CNS

SMILES	GI50 (HT29 colon)	TGI (HT29 colon)	GI50 (BT-549 breast)	TGI (BT-549 breast)	GI50 (PC-3 prostate)	TGI (PC-3 prostate)	GI50 (NCI-H522 lung)	TGI (NCI-H522 lung)	GI50 (TK-10 renal)	TGI (TK-10 renal)	GI50 (A498 renal)	TGI (A498 renal)	GI50 (A549 NSCLC)	TGI (A549 NSCLC)	GI50 (NCI-H23 lung)	TGI (NCI-H23 lung)	TGI (HOP-18 NSCLC)	TGI (SNB-78 CNS)
CCN1CCN(c2nc(NNC(=O)c3ccccc3)nc(N3CCN(C(c4ccccc4)c4ccccc4)CC3)n2)CC1	2.95 µM	13.4 µM	2.49 µM	7.6 µM	1.9 µM	7.57 µM	2.69 µM	7.65 µM	3.31 µM	11.4 µM	6.3 µM	27.1 µM	3.7 µM	20.2 µM	3.17 µM	11.1 µM	–	–
COc1ccc(Cc2nc3cc(OC)c(OC)cc3c(=O)[nH]2)cc1	4.73 µM	> 100 µM	4.84 µM	29.7 µM	22 µM	> 100 µM	14.5 µM	> 100 µM	11.8 µM	54 µM	18.6 µM	66.9 µM	3.61 µM	> 54.3 µM	4.03 µM	33.1 µM	–	–
COc1cc(CCc2ccc(OC(C)=O)cc2)cc(OC)c1OC	–	> 100 µM	–	–	–	–	–	> 100 µM	–	> 100 µM	–	> 100 µM	–	> 100 µM	–	–	> 100 µM	> 100 µM
CC1OC(OC2C(O[C@H]3CC[C@@]4(C)C(=CC[C@H]5[C@@H]6C[C@@H]7O[C@]8(CC[C@@H](C)CO8)[C@@H](C)[C@@H]7[C@@]6(C)CC[C@@H]54)C3)OC(CO)C(OC3OC(CO)C(O)C3O)C2O)C(O)C(O)C1O (some centres undefined)	1.01 µM	1.62 µM and 2.17 µM	1.37 µM	1.84 µM and 2.66 µM	0.533 µM	1.48 µM and 1.78 µM	1.23 µM	1.77 µM and 2.47 µM	–	2.85 µM and 2.24 µM	0.733 µM	1.62 µM and 1.98 µM	0.203 µM	1.3 µM and 0.367 µM	1.23 µM	1.6 µM and 2.47 µM	–	–
COc1ccc(/C=C/C(C)=N/OCC(=O)Nc2ccc(Cl)cc2)cc1	3.87 µM	18.2 µM	2.71 µM	14.4 µM	1.84 µM	13.1 µM	1.81 µM	8.01 µM	7.74 µM	38.9 µM	2.54 µM	16.6 µM	3.06 µM	45.6 µM	2.54 µM	10.2 µM	–	–
O=c1nc2[nH]c3c(-c4n[nH]c(=O)[nH]c4=O)cccc3c2n[nH]1	> 100 µM	> 100 µM	> 100 µM	> 100 µM	> 100 µM	> 100 µM	> 100 µM	> 100 µM	> 100 µM	> 100 µM	> 100 µM	> 100 µM	> 100 µM	> 100 µM	> 100 µM	> 100 µM	–	–
O=C(Oc1ccc2c(c1)CN(Cc1ccccc1)CO2)c1ccccc1	–	40.8 µM	–	34.1 µM	–	29.4 µM	–	22.3 µM	–	29.8 µM	–	31.7 µM	–	40.6 µM	–	30 µM	–	–
OCC#Cc1ccccc1C#Cc1ccc(C#Cc2ccccc2)cc1	12.7 µM	33.5 µM	35.6 µM	> 100 µM	15.1 µM	34.2 µM	55.2 µM	> 100 µM	13 µM	32.9 µM	15.6 µM	30.8 µM	15.3 µM	33.3 µM	18.2 µM	37 µM	–	–
C=C1CC/C=C(\C)CC[C@H](C(=C)C)[C@@H](O)/C=C(/CO)CCC1O (some centres undefined)	> 100 µM	> 100 µM	48.2 µM	> 100 µM	43.4 µM	> 100 µM	60.7 µM	> 100 µM	17.4 µM	68.7 µM	> 100 µM	> 100 µM	74.4 µM	> 100 µM	80.6 µM	> 100 µM	–	–
Nc1nc(=S)[nH]c(C(=O)Nc2nccs2)c1-c1ccccc1	–	> 100 µM	–	–	–	–	–	> 100 µM	–	> 100 µM	–	> 100 µM	–	> 100 µM	–	> 100 µM	> 100 µM	> 100 µM
COc1c(O)c2c3c(c1OC)-c1ccccc1CC3N(S(=O)(=O)c1ccc(C)cc1)CC2 (centres undefined)	9.34 µM	21 µM	3.46 µM	42.2 µM	1.65 µM	> 50 µM	1.28 µM	3.55 µM	7.96 µM	> 50 µM	0.372 µM	5.54 µM	2 µM	> 50 µM	1.17 µM	2.71 µM	–	–
Oc1ccccc1C=Nc1nc(OCc2ccccc2)nc2[nH]ncc12	22.5 µM	49.3 µM	33.7 µM	86.7 µM	16.8 µM	51.4 µM	26.3 µM	> 100 µM	10.6 µM	32.8 µM	20.8 µM	56.9 µM	38.7 µM	> 100 µM	15.4 µM	79.7 µM	–	–
COc1ccc(-c2cc(-c3ccco3)c(C#N)c(=O)[nH]2)cc1	–	> 100 µM	–	–	–	–	–	54 µM	–	> 100 µM	–	> 100 µM	–	> 100 µM	–	> 100 µM	74.8 µM	> 100 µM
